Data on six compounds can be found in patent publication US11154480B2, “Shaping keratin fibres using a sugar” (The Procter & Gamble Company, priority 2013, dated 2021).

The nature of data set [1]: Benedict's Test for reducing sugars. The class given is physicochemical. The text has this:
As used herein, “reducing sugar” means any sugar that either has an aldehyde group or is capable of forming an aldehyde group in solution through isomerism, and that gives a positive result in the Benedict's test. An aldehyde group is —C(═O)H. The aldehyde group is important in view of reacting with and crosslinking the hair. The Benedict's test involves employment of the Benedict's solution. The Benedict's solution is available from Sigma Aldrich as ‘Benedict's Reagent’, which comprises sodium carbonate, copper sulphate pentahydrate and 2,5-difluorotoluene. In the Benedict's test, 1 mL of Benedict's solution is added to a 20 mL of 5% aqueous solution comprising a dissolved test compound. Benedict's solution contains blue copper(II) ions (Cu^2+). The solution is heated to 80° C. for 15 min and the resulting colour change is noted. The cupric ion of the Benedict's solution is reduced to cuprous ion by the aldehyde of the sugar. A positive Benedict's test result is confirmed with a change in colour as cupric ions (Cu^2+) are converted to cuprous ions i.e. reduced to copper(I) ions (Cu^+). These are precipitated as red copper(I) oxide which is insoluble in water. The test is also designed for longer heating time and higher temperature to note any colour change. The solution may range in colour (with increasing amounts of reducing sugar) from green, through yellow and orange, to red. […] The wavelength of light reflected by the solution will change with the colour. In at least one embodiment, a positive Benedict's test result is when the solution emits light not peaking with a wavelength in the range of 450 nm to 495 nm. In at least one embodiment, a positive Benedict's test result is when the solution emits light peaking with a wavelength in the range of 620 nm to 750 nm. This can be measured using a spectrophotometer.
In the art, the Benedict's reagent is used as a test for the presence of reducing sugars. This includes all monosaccharides and many disaccharides, including lactose and maltose. Even more generally, Benedict's test will detect the presence of aldehydes, and alpha-hydroxy-ketones, including those that occur in certain ketoses. Thus, although fructose, a ketose, is not strictly a reducing sugar, it is an alpha-hydroxy-ketone, it gives a positive test because it is converted to the aldoses glucose and mannose by the base in the reagent. The copper sulphate in Benedict's solution reacts with reducing sugars. One litre of Benedict's reagent can be prepared from 100 g of anhydrous sodium carbonate, 173 g of sodium citrate and 17.3 g of copper(II) sulfate pentahydrate. Benedict's Reagent provides a quantitative test for reducing sugars along with qualitative test. The colour of the obtained precipitate gives an idea about the quantity of sugar present in the solution. A greenish precipitate indicates about 0.5% concentration; yellow precipitate indicates 1% concentration; orange indicates 1.5% and red indicates 2% or higher concentration. A positive result in the Benedict's test can be recognised for a compound by a 5% (weight/weight) solution of compound in water as a red colouring. The aldehyde group of the sugar allows the sugar to act as a reducing agent, for example in the Benedict's test.

For data set [2] the following is noted: as known in the art; converted to aldoses by the base in the reagent; cited from earlier work.
[3] abbreviates: 80° C., 15 min, 5% aqueous solution of test compound.

On to `O=C[C@@H](O)[C@H](O)[C@H](O)CO` [Arabinose], for which the “Assessment of sugars using the Benedict's Test” value (“Assessment of sugars” for short) was “Positive” in data set [1] (setting [3]) and “Positive” in data set [1] (100° C., 40 min).

On to `O=C(CO)[C@@H](O)[C@H](O)[C@H](O)CO` [Fructose], for which, in data set [2], the “Benedict's test result” value was “positive”. Moreover, the “Assessment of sugars” value is recorded as “Positive” in data set [1] (setting [3]) and “Positive” in data set [1] (100° C., 40 min).

Turning to `CO[C@H]1OC(CO)[C@H](O)[C@@H](O)[C@@H]1O` (stereo partly shown) [Methyl glucoside], the “Assessment of sugars” value in data set [1] (setting [3]) is reported as “Negative”; in data set [1] (100° C., 40 min) it was “Positive”.

Turning to `O=C[C@H](O)[C@H](O)[C@H](O)CO` [Ribose], the “Assessment of sugars” value in data set [1] (setting [3]) is given as “Positive”; in data set [1] (100° C., 40 min), “Positive”.

As for `OC[C@H]1O[C@@](CO)(O[C@H]2O[C@H](CO)[C@@H](O)[C@H](O)[C@H]2O)[C@@H](O)[C@@H]1O` [Sucrose], the “Assessment of sugars” value in data set [1] (setting [3]) is given as “Negative”; in data set [1] (100° C., 40 min) it was “Positive”.

For `O=C[C@H](O)[C@@H](O)[C@H](O)CO` [Xylose], the “Assessment of sugars” value is “Positive” in data set [1] (setting [3]) and “Positive” in data set [1] (100° C., 40 min).
